The results in this text go back to publication PMC11731258, “The structural basis for high-affinity c-di-GMP binding to the GSPII-B domain of the traffic ATPase PilF from Thermus thermophilus” (The Journal of Biological Chemistry, 2024).

The experiment concerns the target T1, PilF159-302 (GSPII-B domain) (Thermus thermophilus, UniProt Q5SLC9).
T1 sequence (Q5SLC9 159-302): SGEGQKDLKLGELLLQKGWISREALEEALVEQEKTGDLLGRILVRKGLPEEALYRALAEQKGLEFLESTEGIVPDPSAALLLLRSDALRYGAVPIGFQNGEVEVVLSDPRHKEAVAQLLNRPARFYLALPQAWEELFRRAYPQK
The experiment is described as follows: ITC binding to PilF159-302. As to the method:
To assess the ligand-binding capabilities of the various PilF constructs, triplicates of ITC measurements were recorded for each construct. The measurements were carried out using a MicroCal ITC200 (Malvern Panalytical). […] All protein samples were extensively dialyzed against the sample buffer and the buffer used for dialysis was used to dilute protein and c-di-GMP samples in preparation for the ITC measurements. Each measurement was conducted using the following protocol. In total, 39.8 μl c-di-GMP were titrated to 270 μl protein in 20 separate injections in 180 s intervals with a stirring speed of 750 rpm. After an initial delay of 120 s, the first injection of 0.2 μl c-di-GMP with a duration of 0.4 s was followed by 19 injections of 2 μl with a duration of 4 s. During the measurement, the feedback mode was set to high and the reference power to 11 μcal s^−1. To optimize precision of the measurements, protein and c-di-GMP concentrations were adjusted to the binding capabilities of the respective constructs and ranged from 5 to 200 μM for protein and 50 to 2000 μM for c-di-GMP. All thermograms were processed using Origin 7.0 (OriginLab) using a one-site– or two-site–binding model dependent on the number of expected binding events.

By Kd is commonly meant the equilibrium constant for the complex coming apart. A lower Kd goes with higher affinity.

`O=c1[nH]cnc2c1ncn2[C@@H]1O[C@@H]2COP(=O)(O)O[C@H]3[C@@H](O)[C@H](n4cnc5c(=O)[nH]cnc54)O[C@@H]3COP(=O)(O)O[C@H]2[C@H]1O` [c-di-IMP, cyclic dimeric inosine-monophosphate]: binding was put at a Kd of 60 ± 1 nM. For the setting “ITC, 20 °C”, this compound gave an N of 0.74 ± 0.03, a ΔH of -7.103 ± 0.234 kcal/mol and a ΔS of 8.8 ± 0.8 cal/mol/deg.
